Among the data in US20210221866A1, “PROTEASE-RESISTANT LIPIDATED GLP-1 ANALOGS” (MEDIMMUNE LIMITED, priority 2015, published 2021) are EC50 values, retold here.

Holding throughout (assay type): cell-based
Test [1] addresses T1, human GLP-1 receptor (GLP-1R) (Homo sapiens, UniProt P43220).
T1 construct: expressed in transfected cells; host or cells: HEK293 cells or CHO cells
Kind of test: cAMP assay, human GLP-1R cells. The conditions noted are these: cAMP activity. The method, boiled down: (§1)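 Peptide-stimulated cAMP measured by two-step HTRF after a 30 min room-temperature incubation with receptor-expressing cells (hGLP-1R, hGIPR at 1×10^5 cells/ml; hGCGR at 2×10^5 cells/ml). Duplicate dilutions; EC50 from 4-parameter logistic fit of % Delta F.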

Test [2] has as its target T2, human glucagon receptor (GCGR) (Homo sapiens, UniProt P47871).
T2 construct: expressed in transfected cells; host or cells: HEK293 cells or CHO cells
Kind of test: cAMP assay, human GCGR cells. The following applies: cAMP activity; second determination (n2); read-out: Primary assay EC50 Gluc-R. The method, boiled down:
as §1

In test [3] the target is T3, human glucose-dependent insulinotropic peptide receptor (GIPR) (Homo sapiens, UniProt P48546).
T3 construct: expressed in transfected cells; host or cells: HEK293 cells or CHO cells
T3 sequence (P48546 22-466): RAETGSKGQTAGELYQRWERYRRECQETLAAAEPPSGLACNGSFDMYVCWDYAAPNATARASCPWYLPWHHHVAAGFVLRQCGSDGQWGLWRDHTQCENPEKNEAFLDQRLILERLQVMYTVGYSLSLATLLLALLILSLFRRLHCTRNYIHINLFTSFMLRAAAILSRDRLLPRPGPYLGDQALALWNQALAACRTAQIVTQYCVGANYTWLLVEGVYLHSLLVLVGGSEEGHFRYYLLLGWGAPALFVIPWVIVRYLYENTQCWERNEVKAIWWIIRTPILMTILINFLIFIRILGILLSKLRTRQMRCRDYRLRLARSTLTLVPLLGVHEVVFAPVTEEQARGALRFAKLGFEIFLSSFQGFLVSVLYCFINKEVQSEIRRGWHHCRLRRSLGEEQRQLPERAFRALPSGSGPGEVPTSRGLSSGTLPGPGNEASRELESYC
Kind of test: cAMP assay, human GIPR cells. The conditions noted are these: cAMP activity, read-out: Primary assay EC50 GIP-R. The method, boiled down:
as §1
In general terms: cAMP levels reflect the balance of adenylyl cyclase and phosphodiesterase activity.

Test [4] deals with T4, GLP-1R (INS1e cells) (Rattus norvegicus, UniProt P32301).
T4 construct: endogenous in cells; host or cells: INS1e cells
T4 sequence (P32301 22-463): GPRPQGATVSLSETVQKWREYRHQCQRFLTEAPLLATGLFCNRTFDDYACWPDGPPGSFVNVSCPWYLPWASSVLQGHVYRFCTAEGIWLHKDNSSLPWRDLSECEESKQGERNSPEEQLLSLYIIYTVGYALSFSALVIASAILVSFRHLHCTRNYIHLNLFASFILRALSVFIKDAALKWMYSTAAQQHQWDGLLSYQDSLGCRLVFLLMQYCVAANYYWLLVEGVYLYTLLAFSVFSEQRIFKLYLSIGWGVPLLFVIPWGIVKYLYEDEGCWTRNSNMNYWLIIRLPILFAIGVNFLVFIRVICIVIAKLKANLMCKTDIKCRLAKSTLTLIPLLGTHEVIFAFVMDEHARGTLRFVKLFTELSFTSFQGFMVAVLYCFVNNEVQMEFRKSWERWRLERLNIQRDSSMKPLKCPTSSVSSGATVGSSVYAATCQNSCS
Kind of test: INS1e assay, cAMP activity at GLP-1R. The conditions noted are these: Table 8, substituted and mono-lipidated peptides.

Where [5] appears, read: first determination (n1), read-out: Primary assay EC50 GLP-1R n1.
Setting [6] is: mean of n1 and n2, read-out: Mean pM GLP-1R.
[7] abbreviates: second determination (n2), read-out: Primary assay EC50 GLP-1R n2.
Setting [8] is: mean of n1 and n2, read-out: INS1e assay EC50 Mean pM GLP-1R.
The mark [9] stands for this setting: replicate n1, read-out: INS1e assay EC50 GLP-1R n1.
Where [10] appears, read: replicate n2, read-out: INS1e assay EC50 GLP-1R n2.

Read-outs that look alike come from different tables or passages of the source. Numbered stars: 1 amine (or outer) side, 2 acyl side, 3 side chain; on linkers, the order of the positions; unused ones are H or OH. Square brackets hold non-standard residues; d marks the D form. Side chains are listed from the residue outwards. Peptide text beside a SMILES is read from it. * marks the point of attachment. C18 diacid = O=C(O)CCCCCCCCCCCCCCCCC(=O)*; γGlu = O=C(O)[C@H](CCC(=O)[*:2])N[*:1]; αMeF = C[C@](N)(Cc1ccccc1)C(=O)O; αMeK = C[C@](N)(CCCCN)C(=O)O; αMeS = C[C@](N)(CO)C(=O)O; AEEA = NCCOCCOCC(=O)O; Aib = CC(C)(N)C(=O)O

T1 sequence (P43220 24-463): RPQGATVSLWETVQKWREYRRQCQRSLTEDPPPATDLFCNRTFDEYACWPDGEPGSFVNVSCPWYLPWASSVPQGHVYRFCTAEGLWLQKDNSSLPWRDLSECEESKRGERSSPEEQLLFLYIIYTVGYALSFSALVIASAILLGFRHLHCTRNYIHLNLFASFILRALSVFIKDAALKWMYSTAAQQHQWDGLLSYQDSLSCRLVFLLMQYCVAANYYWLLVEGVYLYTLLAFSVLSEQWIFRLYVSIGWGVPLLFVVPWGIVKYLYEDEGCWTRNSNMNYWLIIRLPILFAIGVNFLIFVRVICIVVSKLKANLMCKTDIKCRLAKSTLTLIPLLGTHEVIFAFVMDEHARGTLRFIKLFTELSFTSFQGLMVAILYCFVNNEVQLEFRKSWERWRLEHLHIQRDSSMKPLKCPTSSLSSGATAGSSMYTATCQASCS
T2 sequence (P47871 26-477): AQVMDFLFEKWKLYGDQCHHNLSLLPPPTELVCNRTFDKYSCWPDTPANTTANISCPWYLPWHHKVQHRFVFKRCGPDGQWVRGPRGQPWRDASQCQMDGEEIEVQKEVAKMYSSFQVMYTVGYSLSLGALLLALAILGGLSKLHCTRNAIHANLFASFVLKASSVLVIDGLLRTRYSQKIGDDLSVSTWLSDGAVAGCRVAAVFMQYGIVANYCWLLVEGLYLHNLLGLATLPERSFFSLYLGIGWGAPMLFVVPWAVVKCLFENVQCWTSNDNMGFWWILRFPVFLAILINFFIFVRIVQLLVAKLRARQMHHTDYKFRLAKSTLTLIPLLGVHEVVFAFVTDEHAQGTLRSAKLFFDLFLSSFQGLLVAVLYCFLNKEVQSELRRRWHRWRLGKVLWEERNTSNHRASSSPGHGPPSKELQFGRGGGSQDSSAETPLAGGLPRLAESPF

Take `CC[C@H](C)[C@H](NC(=O)[C@](C)(Cc1ccccc1)NC(=O)[C@H](CCC(=O)O)NC(=O)[C@](C)(CCCCN)NC(=O)[C@H](C)NC(=O)[C@H](C)NC(=O)[C@H](CCC(=O)O)NC(=O)CNC(=O)[C@H](CCC(=O)O)NC(=O)[C@H](CCCCNC(=O)COCCOCCNC(=O)COCCOCCNC(=O)CC[C@H](NC(=O)CCCCCCCCCCCCCCCCC(=O)O)C(=O)O)NC(=O)[C@](C)(Cc1ccccc1)NC(=O)[C@H](CO)NC(=O)[C@](C)(CO)NC(=O)[C@@H](NC(=O)[C@H](CC(=O)O)NC(=O)[C@H](CO)NC(=O)[C@@H](NC(=O)[C@](C)(Cc1ccccc1)NC(=O)[C@H](CO)NC(=O)CNC(=O)[C@H](CCC(=O)O)NC(=O)C(C)(C)NC(=O)[C@@H](N)Cc1c[nH]cn1)[C@@H](C)O)C(C)C)C(=O)N[C@@H](C)C(=O)N[C@@](C)(Cc1ccccc1)C(=O)N[C@H](C(=O)N[C@H](C(=O)N[C@@](C)(CCCCN)C(=O)NCC(=O)NCC(N)=O)C(C)C)C(C)C` [compound 115] (H-H[Aib]EGS[αMeF]TSDV[αMeS]S[αMeF]K([AEEA-AEEA-γGlu-C18 diacid])EGEAA[αMeK]E[αMeF]IA[αMeF]VV[αMeK]GG-NH2): the EC50 in test [1] (setting [5]) is 6 pM; in test [1] (setting [6]), 6 pM; in test [1] (setting [7]), 5.39 pM; in test [2], not below 25.3 nM; in test [3] (first determination (n1)), not below 25 nM; in test [3] (second determination (n2)) it was not below 25.3 nM. Further, the EC50 was determined as 544 pM in test [4] (setting [8]), 593 pM in test [4] (setting [9]) and 494 pM in test [4] (setting [10]).

Turning to `CC[C@H](C)[C@H](NC(=O)[C@](C)(Cc1ccccc1)NC(=O)[C@H](CCC(=O)O)NC(=O)[C@](C)(CCCCN)NC(=O)[C@H](C)NC(=O)[C@H](C)NC(=O)[C@H](CCC(=O)O)NC(=O)CNC(=O)[C@H](CCC(=O)O)NC(=O)[C@H](CC(C)C)NC(=O)[C@](C)(Cc1ccccc1)NC(=O)[C@H](CO)NC(=O)[C@](C)(CO)NC(=O)[C@@H](NC(=O)[C@H](CC(=O)O)NC(=O)[C@H](CO)NC(=O)[C@@H](NC(=O)[C@](C)(Cc1ccccc1)NC(=O)[C@H](CO)NC(=O)CNC(=O)[C@H](CCC(=O)O)NC(=O)C(C)(C)NC(=O)[C@@H](N)Cc1c[nH]cn1)[C@@H](C)O)C(C)C)C(=O)N[C@@H](C)C(=O)N[C@@](C)(Cc1ccccc1)C(=O)N[C@@H](CCCCNC(=O)COCCOCCNC(=O)COCCOCCNC(=O)CC[C@H](NC(=O)CCCCCCCCCCCCCCCCC(=O)O)C(=O)O)C(=O)N[C@H](C(=O)N[C@@](C)(CCCCN)C(=O)NCC(=O)NCC(N)=O)C(C)C` [compound 103] (H-H[Aib]EGS[αMeF]TSDV[αMeS]S[αMeF]LEGEAA[αMeK]E[αMeF]IA[αMeF]K([AEEA-AEEA-γGlu-C18 diacid])V[αMeK]GG-NH2), the EC50 in test [1] (setting [5]) is 4.7 pM; in test [1] (setting [6]), 5 pM; in test [1] (setting [7]), 4.56 pM; in test [2] it was not below 25.2 nM; in test [3] (first determination (n1)), not below 25 nM; in test [3] (second determination (n2)) it was not below 25.2 nM. The EC50 turned out to be 509 pM in test [4] (setting [8]), 428 pM in test [4] (setting [9]) and 590 pM in test [4] (setting [10]).

For the compound `CCCCCCCCCCCC(=O)NCCOCCOCC(=O)NCCCC[C@H](NC(=O)[C@@H](NC(=O)[C@@H](NC(=O)[C@](C)(Cc1ccccc1)NC(=O)[C@H](C)NC(=O)[C@@H](NC(=O)[C@](C)(Cc1ccccc1)NC(=O)[C@H](CCC(=O)O)NC(=O)[C@](C)(CCCCN)NC(=O)[C@H](C)NC(=O)[C@H](C)NC(=O)[C@H](CCC(=O)O)NC(=O)CNC(=O)[C@H](CCC(=O)O)NC(=O)[C@H](CC(C)C)NC(=O)[C@](C)(Cc1ccccc1)NC(=O)[C@H](CO)NC(=O)[C@](C)(CO)NC(=O)[C@@H](NC(=O)[C@H](CC(=O)O)NC(=O)[C@H](CO)NC(=O)[C@@H](NC(=O)[C@](C)(Cc1ccccc1)NC(=O)[C@H](CO)NC(=O)CNC(=O)[C@H](CCC(=O)O)NC(=O)C(C)(C)NC(=O)[C@@H](N)Cc1c[nH]cn1)[C@@H](C)O)C(C)C)[C@@H](C)CC)C(C)C)C(C)C)C(=O)NCC(=O)NCC(N)=O` [compound 170], the EC50 in test [1] (setting [5]) was 8 pM; in test [1] (setting [6]), 6.2 pM; in test [1] (setting [7]), 4.5 pM; in test [2] it was not below 28 nM; in test [3] (first determination (n1)), not below 28 nM; in test [3] (second determination (n2)), not below 28 nM. Moreover, the figures for the EC50 in test [4] (setting [8]), in test [4] (setting [9]) and in test [4] (setting [10]) were 462 pM, 548 pM and 376 pM, respectively.

For the compound `CC[C@H](C)[C@H](NC(=O)[C@](C)(Cc1ccccc1)NC(=O)[C@H](CCC(=O)O)NC(=O)[C@](C)(CCCCN)NC(=O)[C@H](C)NC(=O)[C@H](C)NC(=O)[C@H](CCC(=O)O)NC(=O)CNC(=O)[C@H](CCC(=O)O)NC(=O)[C@H](CC(C)C)NC(=O)[C@](C)(Cc1ccccc1)NC(=O)[C@H](CO)NC(=O)[C@](C)(CO)NC(=O)[C@@H](NC(=O)[C@H](CC(=O)O)NC(=O)[C@H](CO)NC(=O)[C@@H](NC(=O)[C@](C)(Cc1ccccc1)NC(=O)[C@H](CO)NC(=O)CNC(=O)[C@H](CCC(=O)O)NC(=O)C(C)(C)NC(=O)[C@@H](N)Cc1c[nH]cn1)[C@@H](C)O)C(C)C)C(=O)N[C@@H](C)C(=O)N[C@@](C)(Cc1ccccc1)C(=O)N[C@H](C(=O)N[C@H](C(=O)N[C@@](C)(CCCCN)C(=O)NCC(=O)N[C@@H](CCCCNC(=O)COCCOCCNC(=O)COCCOCCNC(=O)CC[C@H](NC(=O)CCCCCCCCCCCCCCCCC(=O)O)C(=O)O)C(N)=O)C(C)C)C(C)C` [compound 99] (H-H[Aib]EGS[αMeF]TSDV[αMeS]S[αMeF]LEGEAA[αMeK]E[αMeF]IA[αMeF]VV[αMeK]GK([AEEA-AEEA-γGlu-C18 diacid])-NH2; N-terminus assumed), the EC50 in test [1] (setting [5]) was 58 pM; in test [1] (setting [6]), 54 pM; in test [1] (setting [7]), 49.3 pM; in test [2] it was not below 24.9 nM; in test [3] (first determination (n1)), not below 25 nM; in test [3] (second determination (n2)), not below 24.9 nM. Moreover, the figures for the EC50 in test [4] (setting [8]), in test [4] (setting [9]) and in test [4] (setting [10]) were 8440 pM, 11000 pM and 5880 pM, respectively.
